{"source": "paper PMC3748936", "about": "(Chembiochem : a European journal of chemical biology, 2012)", "molecules": {"B1": {"name": "E. coli GMPS (Escherichia coli K-12) (protein)", "chain": "MTENIHKHRILILDFGSQYTQLVARRVRELGVYCELWAWDVTEAQIRDFNPSGIILSGGPESTTEENSPRAPQYVFEAGVPVFGVCYGMQTMAMQLGGHVEASNEREFGYAQVEVVNDSALVRGIEDALTADGKPLLDVWMSHGDKVTAIPSDFITVASTESCPFAIMANEEKRFYGVQFHPEVTHTRQGMRMLERFVRDICQCEALWTPAKIIDDAVARIREQVGDDKVILGLSGGVDSSVTAMLLHRAIGKNLTCVFVDNGLLRLNEAEQVLDMFGDHFGLNIVHVPAEDRFLSALAGENDPEAKRKIIGRVFVEVFDEEALKLEDVKWLAQGTIYPDVIESAASATGKAHVIKSHHNVGGLPKEMKMGLVEPLKELFKDEVRKIGLELGLPYDMLYRHPFPGPGLGVRVLGEVKKEYCDLLRRADAIFIEELRKADLYDKVSQAFTVFLPVRSVGVMGDGRKYDWVVSLRAVETIDFMTAHWAHLPYDFLGRVSNRIINEVNGISRVVYDISGKPPATIEWE"}}, "key": {"E. coli GMPS [1]": {"molecular_target": "T1, E. coli GMPS (Escherichia coli, UniProt P04079)", "T1 sequence (P04079 1-525)": "B1 chain", "conditions": "previous report; cited from earlier work"}, "E. coli GMPS [2]": {"molecular_target": "T1, E. coli GMPS", "experiment": "GMPS inhibition of D-XMP amination, UV-Vis analysis", "format": "biochemical"}, "GMPS": {"molecular_target": "GMPS", "conditions": "previous report; cited from earlier work"}, "E. coli GMPS [3]": {"molecular_target": "T1, E. coli GMPS", "experiment": "HPLC-based assay of GMPS enzymatic reaction products", "format": "biochemical"}, "E. coli GMPS [4]": {"molecular_target": "T1, E. coli GMPS", "experiment": "Continuous UV spectrophotometric assay of GMPS", "format": "biochemical", "conditions": "UV-Vis analysis, triplicate, average +/- S.D."}, "[5]": {"system": "GMPS isolated from rat Walker sarcoma cells", "conditions": "cited from earlier work"}, "[6]": {"substrate": "O=c1[nH]c(=O)c2ncn([C@@H]3O[C@H](COP(=O)(O)O)[C@@H](O)[C@H]3O)c2[nH]1", "experiment": "Continuous UV spectrophotometric assay of GMPS", "format": "biochemical, E. coli", "conditions": "other: UV-Vis analysis; triplicate, average +/- S.D."}}, "data": [{"molecule": "O=c1[nH]c(=O)c2ncn([C@@H]3O[C@H](COP(=O)(O)O)[C@@H](O)[C@H]3O)c2[nH]1", "note": "[D-XMP, xanthosine 5′-monophosphate]", "values": [{"measurement": "kcat (turnover number)", "setting": "E. coli GMPS [1]", "result": "9.4×10^–2 s^–1"}]}, {"molecule": "OC[C@H]1O[C@@H](n2cnc3c(O)nc(O)nc32)[C@H](O)[C@@H]1O", "note": "[D-Xanthosine, D-xanthosine]", "values": [{"measurement": "GMPS inhibition (in words)", "setting": "E. coli GMPS [2]", "result": "neither molecule inhibited GMPS"}]}, {"molecule": "C=C1O[C@@](CO)(n2cnc3c(N)ncnc32)[C@H](O)[C@@H]1O", "note": "[Decoyinine, decoyinine]", "values": [{"measurement": "Ki", "setting": "E. coli GMPS [2]", "result": "54.1 ± 14.5", "unit": "µM"}, {"measurement": "Ki", "setting": "GMPS", "result": 26, "unit": "µM"}]}, {"molecule": "O=c1[nH]c(=O)c2ncn([C@H]3O[C@@H](COP(=O)(O)O)[C@H](O)[C@@H]3O)c2[nH]1", "note": "[L-XMP]", "values": [{"measurement": "Km fold higher than the natural enantiomer D-XMP", "setting": "E. coli GMPS [3]; HPLC analysis", "result": "~ 10 fold"}, {"measurement": "kcat fold difference in turnover number compared to D-XMP", "setting": "E. coli GMPS [3]; HPLC analysis", "result": "15,000 fold"}, {"measurement": "kcat/Km (specific activity) fold decrease from the natural enantiomer", "setting": "E. coli GMPS [3]; HPLC analysis", "result": "140,000 fold"}, {"measurement": "conversion of substrate by GMPS (HPLC peak, MS confirmed)", "setting": "E. coli GMPS [3]; incubation with GMPS and NH4OAc", "result": "converted to L-GMP by GMPS"}, {"measurement": "kcat", "setting": "E. coli GMPS [4]; substrate turnover to GMP", "result": "3.1 (± 0.7) × 10^−6 s^−1"}, {"measurement": "Km", "setting": "E. coli GMPS [4]", "result": "330 ± 105", "unit": "µM"}, {"measurement": "fold more potent than decoyinine inhibition against E. coli GMPS", "setting": "E. coli GMPS [2]; from Ki values", "result": "~7", "unit": "fold"}]}, {"molecule": "O=c1[nH]c(=O)c2ncn(C3OC(CO)C(O)C3O)c2[nH]1", "note": "[L-Xanthosine, L-xanthosine]", "values": [{"measurement": "GMPS inhibition (in words)", "setting": "E. coli GMPS [2]", "result": "neither molecule inhibited GMPS"}]}, {"molecule": "NC(=O)c1ncn([C@@H]2O[C@H](CO)[C@@H](O)[C@H]2O)c1O", "note": "[Mizoribine]", "values": [{"measurement": "Ki", "setting": "E. coli GMPS [2]", "result": "1.8 ± 0.7", "unit": "µM"}, {"measurement": "Ki", "setting": "[5]", "result": 10, "unit": "µM"}]}, {"molecule": "B1", "values": [{"measurement": "Km", "setting": "[6]", "result": "24.9 ± 6.6", "unit": "µM"}, {"measurement": "kcat", "setting": "[6]", "result": "0.043 ± 0.007", "unit": "s⁻¹"}, {"measurement": "kcat/Km", "setting": "[6]", "result": 1700, "unit": "M⁻¹ s⁻¹"}]}]}
